The kinase profiling compilation of Christmann-Franck et al. (2016)

What was measured:
Assay in all cases: KINOMEscan competition binding
Details in all cases: compound 10.0 µM
PRKG1 (human) = PRKG1 (human) (UniProt Q13976)
EPHA6 (human) = EPHA6 (human) (UniProt Q9UF33)
SRPK1 (human) = SRPK1 (human) (UniProt Q96SB4)
TLK2 (human) = TLK2 (human) (UniProt Q86UE8)
PLK3 (human) = PLK3 (human) (UniProt Q9H4B4)
FGFR3 (human) = FGFR3 (human) (UniProt P22607)
MAP3K4 (human) = MAP3K4 (human) (UniProt Q9Y6R4)
MAP4K2 (human) = MAP4K2 (human) (UniProt Q12851)
MAPK7 (human) = MAPK7 (human) (UniProt Q13164)
Chain of MAPK7 (human) (Q13164 whole entry, looked up): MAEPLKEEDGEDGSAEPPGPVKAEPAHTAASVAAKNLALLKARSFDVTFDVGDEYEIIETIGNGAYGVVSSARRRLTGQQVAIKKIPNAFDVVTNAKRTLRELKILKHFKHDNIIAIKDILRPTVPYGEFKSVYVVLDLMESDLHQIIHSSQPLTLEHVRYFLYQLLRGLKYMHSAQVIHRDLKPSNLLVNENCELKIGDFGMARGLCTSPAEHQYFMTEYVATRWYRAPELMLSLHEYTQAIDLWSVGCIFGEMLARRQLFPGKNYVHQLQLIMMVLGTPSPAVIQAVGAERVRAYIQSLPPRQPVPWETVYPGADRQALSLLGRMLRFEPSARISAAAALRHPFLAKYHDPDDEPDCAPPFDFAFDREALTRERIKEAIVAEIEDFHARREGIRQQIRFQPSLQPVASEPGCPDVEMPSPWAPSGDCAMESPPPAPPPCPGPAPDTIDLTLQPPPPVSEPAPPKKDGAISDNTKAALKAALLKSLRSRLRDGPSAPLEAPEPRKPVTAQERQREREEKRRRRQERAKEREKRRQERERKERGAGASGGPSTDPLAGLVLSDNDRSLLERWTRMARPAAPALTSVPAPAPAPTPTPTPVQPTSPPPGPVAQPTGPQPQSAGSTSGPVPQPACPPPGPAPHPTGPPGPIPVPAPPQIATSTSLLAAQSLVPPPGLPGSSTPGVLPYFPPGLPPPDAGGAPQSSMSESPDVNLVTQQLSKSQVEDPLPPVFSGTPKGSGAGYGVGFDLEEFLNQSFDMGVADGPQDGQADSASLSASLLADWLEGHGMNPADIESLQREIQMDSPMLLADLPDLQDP

CDC42BPG (human) = CDC42BPG (human) (UniProt Q6DT37)
AAK1 (human) = AAK1 (human) (UniProt Q2M2I8)
PKN1 (human) = PKN1 (human) (UniProt Q16512)
MAP4K5 (human) = MAP4K5 (human) (UniProt Q9Y4K4)
PTK2 (human) = PTK2 (human) (UniProt Q05397)
Chain of PTK2 (human) (Q05397 whole entry, looked up): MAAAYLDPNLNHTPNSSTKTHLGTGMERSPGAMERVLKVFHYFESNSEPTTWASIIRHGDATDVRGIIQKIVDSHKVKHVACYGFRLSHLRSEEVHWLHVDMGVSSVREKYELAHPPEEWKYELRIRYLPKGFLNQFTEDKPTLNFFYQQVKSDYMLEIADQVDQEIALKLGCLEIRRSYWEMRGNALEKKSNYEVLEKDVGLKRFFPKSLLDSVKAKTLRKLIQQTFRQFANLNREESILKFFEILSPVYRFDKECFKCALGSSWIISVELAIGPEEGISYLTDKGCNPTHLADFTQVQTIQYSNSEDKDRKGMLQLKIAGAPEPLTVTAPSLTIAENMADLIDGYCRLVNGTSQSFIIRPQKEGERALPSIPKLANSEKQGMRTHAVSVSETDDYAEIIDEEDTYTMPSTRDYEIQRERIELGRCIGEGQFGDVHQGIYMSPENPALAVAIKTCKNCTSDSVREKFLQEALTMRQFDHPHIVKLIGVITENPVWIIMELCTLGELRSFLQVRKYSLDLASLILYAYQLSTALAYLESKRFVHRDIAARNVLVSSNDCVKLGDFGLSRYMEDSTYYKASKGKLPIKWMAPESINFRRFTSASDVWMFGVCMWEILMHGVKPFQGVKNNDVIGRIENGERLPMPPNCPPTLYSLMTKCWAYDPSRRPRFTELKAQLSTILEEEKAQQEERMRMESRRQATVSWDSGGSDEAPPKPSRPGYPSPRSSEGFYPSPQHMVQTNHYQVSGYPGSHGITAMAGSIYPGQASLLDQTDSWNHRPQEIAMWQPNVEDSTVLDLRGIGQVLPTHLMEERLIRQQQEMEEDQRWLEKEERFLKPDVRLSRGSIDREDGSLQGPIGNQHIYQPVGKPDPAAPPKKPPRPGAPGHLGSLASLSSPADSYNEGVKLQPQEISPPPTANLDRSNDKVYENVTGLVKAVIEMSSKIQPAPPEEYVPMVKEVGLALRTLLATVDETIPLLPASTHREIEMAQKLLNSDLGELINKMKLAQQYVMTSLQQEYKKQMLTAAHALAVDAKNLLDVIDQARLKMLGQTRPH

PRKD2 (human) = PRKD2 (human) (UniProt Q9BZL6)
Chain of PRKD2 (human) (Q9BZL6 whole entry, looked up): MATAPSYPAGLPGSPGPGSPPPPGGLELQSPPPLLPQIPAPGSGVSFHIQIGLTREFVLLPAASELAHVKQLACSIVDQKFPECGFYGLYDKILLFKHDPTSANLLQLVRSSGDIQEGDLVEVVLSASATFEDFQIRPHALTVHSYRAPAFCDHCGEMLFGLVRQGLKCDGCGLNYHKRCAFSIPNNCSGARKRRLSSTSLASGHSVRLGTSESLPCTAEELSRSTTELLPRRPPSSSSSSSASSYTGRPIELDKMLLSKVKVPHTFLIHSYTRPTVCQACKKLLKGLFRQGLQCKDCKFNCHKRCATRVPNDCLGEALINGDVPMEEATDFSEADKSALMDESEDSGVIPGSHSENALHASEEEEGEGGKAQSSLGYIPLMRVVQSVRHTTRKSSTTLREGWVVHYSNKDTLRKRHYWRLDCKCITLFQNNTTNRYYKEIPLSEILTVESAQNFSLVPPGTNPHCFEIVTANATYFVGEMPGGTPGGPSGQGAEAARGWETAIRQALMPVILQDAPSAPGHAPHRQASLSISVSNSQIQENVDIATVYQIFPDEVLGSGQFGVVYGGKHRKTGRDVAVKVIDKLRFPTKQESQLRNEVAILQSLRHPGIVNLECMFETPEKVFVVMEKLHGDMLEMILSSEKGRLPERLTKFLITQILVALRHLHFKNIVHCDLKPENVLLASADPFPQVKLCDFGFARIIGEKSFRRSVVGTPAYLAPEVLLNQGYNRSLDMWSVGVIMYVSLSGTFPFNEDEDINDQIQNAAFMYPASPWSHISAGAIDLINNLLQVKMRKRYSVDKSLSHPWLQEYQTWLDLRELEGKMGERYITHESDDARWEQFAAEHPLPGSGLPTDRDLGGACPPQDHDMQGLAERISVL

ERBB2 (human) = ERBB2 (human) (UniProt P04626)
PDPK1 (human) = PDPK1 (human) (UniProt O15530)
FGFR1 (human) = FGFR1 (human) (UniProt P11362)
MAPK14 (human) = MAPK14 (human) (UniProt Q16539)
STK32B (human) = STK32B (human) (UniProt Q9NY57)
CDC42BPB (human) = CDC42BPB (human) (UniProt Q9Y5S2)
NLK (human) = NLK (human) (UniProt Q9UBE8)
RPS6KA4 KD1 (human) = RPS6KA4 KD1 (human) (UniProt O75676)
Chain of RPS6KA4 KD1 (human) (O75676 whole entry, looked up): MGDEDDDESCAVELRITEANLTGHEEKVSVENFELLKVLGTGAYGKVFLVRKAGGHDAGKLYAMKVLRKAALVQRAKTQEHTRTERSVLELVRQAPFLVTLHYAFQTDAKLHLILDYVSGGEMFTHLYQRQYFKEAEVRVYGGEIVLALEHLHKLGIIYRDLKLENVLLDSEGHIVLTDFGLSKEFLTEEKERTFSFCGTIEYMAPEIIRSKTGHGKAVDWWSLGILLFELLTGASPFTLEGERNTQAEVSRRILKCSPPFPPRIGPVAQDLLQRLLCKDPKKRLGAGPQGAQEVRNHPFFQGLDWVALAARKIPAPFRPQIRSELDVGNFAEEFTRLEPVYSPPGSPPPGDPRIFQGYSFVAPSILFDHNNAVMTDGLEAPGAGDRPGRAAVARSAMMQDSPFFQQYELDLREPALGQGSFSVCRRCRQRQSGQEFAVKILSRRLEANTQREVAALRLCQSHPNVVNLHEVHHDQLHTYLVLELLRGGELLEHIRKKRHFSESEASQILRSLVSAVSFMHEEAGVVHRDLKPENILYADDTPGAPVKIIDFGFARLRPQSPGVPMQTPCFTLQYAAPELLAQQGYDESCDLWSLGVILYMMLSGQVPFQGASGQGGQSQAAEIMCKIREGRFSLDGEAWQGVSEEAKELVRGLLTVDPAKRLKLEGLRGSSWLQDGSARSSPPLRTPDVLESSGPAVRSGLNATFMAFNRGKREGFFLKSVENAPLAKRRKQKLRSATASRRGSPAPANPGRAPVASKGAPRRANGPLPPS

PIM2 (human) = PIM2 (human) (UniProt Q9P1W9)
Chain of PIM2 (human) (Q9P1W9 whole entry, looked up): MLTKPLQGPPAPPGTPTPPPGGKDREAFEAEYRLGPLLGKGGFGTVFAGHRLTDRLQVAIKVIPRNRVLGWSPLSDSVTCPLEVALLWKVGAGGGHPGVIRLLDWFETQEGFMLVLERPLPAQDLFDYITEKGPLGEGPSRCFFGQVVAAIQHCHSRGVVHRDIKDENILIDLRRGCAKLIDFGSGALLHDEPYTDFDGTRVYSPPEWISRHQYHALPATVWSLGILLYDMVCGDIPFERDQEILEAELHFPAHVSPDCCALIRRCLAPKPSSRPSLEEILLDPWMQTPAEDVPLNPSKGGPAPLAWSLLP

PLK4 (human) = PLK4 (human) (UniProt O00444)
PKN2 (human) = PKN2 (human) (UniProt Q16513)
TGFBR1 (human) = TGFBR1 (human) (UniProt P36897)
CSNK1D (human) = CSNK1D (human) (UniProt P48730)
RPS6KA2 KD1 (human) = RPS6KA2 KD1 (human) (UniProt Q15349)
CLK2 (human) = CLK2 (human) (UniProt P49760)
Chain of CLK2 (human) (P49760 whole entry, looked up): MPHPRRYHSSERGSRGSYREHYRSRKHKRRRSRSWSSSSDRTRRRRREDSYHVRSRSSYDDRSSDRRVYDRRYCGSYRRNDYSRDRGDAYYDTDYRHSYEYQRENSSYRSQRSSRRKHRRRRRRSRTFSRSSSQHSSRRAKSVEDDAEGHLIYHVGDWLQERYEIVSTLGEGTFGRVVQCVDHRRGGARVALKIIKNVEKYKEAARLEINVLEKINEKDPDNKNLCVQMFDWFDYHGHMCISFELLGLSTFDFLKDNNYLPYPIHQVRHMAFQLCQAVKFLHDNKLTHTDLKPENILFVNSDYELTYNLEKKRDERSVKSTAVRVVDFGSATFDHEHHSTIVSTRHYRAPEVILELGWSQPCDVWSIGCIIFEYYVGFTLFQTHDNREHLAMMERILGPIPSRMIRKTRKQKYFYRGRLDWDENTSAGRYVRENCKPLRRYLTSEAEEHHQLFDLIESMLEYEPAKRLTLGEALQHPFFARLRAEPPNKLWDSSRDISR

ACVR1B (human) = ACVR1B (human) (UniProt P36896)
ULK3 (human) = ULK3 (human) (UniProt Q6PHR2)
Chain of ULK3 (human) (Q6PHR2 whole entry, looked up): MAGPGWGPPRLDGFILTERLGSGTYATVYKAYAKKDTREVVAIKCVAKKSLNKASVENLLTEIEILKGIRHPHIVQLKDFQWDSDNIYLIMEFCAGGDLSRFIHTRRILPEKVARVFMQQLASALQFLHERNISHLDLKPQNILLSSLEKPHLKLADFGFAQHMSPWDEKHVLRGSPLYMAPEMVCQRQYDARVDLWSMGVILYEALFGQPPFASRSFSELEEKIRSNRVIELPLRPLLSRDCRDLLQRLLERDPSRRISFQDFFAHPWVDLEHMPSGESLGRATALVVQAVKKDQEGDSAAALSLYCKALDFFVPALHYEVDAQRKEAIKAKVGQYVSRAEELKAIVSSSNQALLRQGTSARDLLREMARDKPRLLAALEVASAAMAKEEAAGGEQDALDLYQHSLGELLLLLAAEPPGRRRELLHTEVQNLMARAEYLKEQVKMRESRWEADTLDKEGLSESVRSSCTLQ

RPS6KA2 KD2 (human) = RPS6KA2 KD2 (human) (UniProt Q15349)
CSK (human) = CSK (human) (UniProt P41240)
ERBB4 (human) = ERBB4 (human) (UniProt Q15303)
EPHA2 (human) = EPHA2 (human) (UniProt P29317)
CAMKK1 (human) = CAMKK1 (human) (UniProt Q8N5S9)
ACVR1 (human) = ACVR1 (human) (UniProt Q04771)
MAPKAPK2 (human) = MAPKAPK2 (human) (UniProt P49137)
PAK4 (human) = PAK4 (human) (UniProt O96013)

| SMILES | kinase still bound, per cent of control (PRKG1 (human)) | kinase still bound, per cent of control (EPHA6 (human)) | kinase still bound, per cent of control (SRPK1 (human)) | kinase still bound, per cent of control (TLK2 (human)) | kinase still bound, per cent of control (PLK3 (human)) | kinase still bound, per cent of control (FGFR3 (human)) | kinase still bound, per cent of control (MAP3K4 (human)) | kinase still bound, per cent of control (MAP4K2 (human)) | kinase still bound, per cent of control (MAPK7 (human)) | kinase still bound, per cent of control (CDC42BPG (human)) | kinase still bound, per cent of control (AAK1 (human)) | kinase still bound, per cent of control (PKN1 (human)) | kinase still bound, per cent of control (MAP4K5 (human)) | kinase still bound, per cent of control (PTK2 (human)) | kinase still bound, per cent of control (PRKD2 (human)) | kinase still bound, per cent of control (ERBB2 (human)) | kinase still bound, per cent of control (PDPK1 (human)) | kinase still bound, per cent of control (FGFR1 (human)) | kinase still bound, per cent of control (MAPK14 (human)) | kinase still bound, per cent of control (CDC42BPB (human)) | other results |
| --- | --- | --- | --- | --- | --- | --- | --- | --- | --- | --- | --- | --- | --- | --- | --- | --- | --- | --- | --- | --- | --- |
| Nc1ccc(-c2ccc3ncc4ccc(=O)n(-c5cccc(C(F)(F)F)c5)c4c3c2)cn1 | 83% | 100% | 100% | 100% | 94% | 75% | 100% | 68% | 100% | 86% | 71% | 100% | 100% | 75% | 100% | 97% | 100% | 95% | 100% | 96% | kinase still bound, per cent of control (STK32B (human)): 100%; kinase still bound, per cent of control (NLK (human)): 86%; kinase still bound, per cent of control (RPS6KA4 KD1 (human)): 82%; kinase still bound, per cent of control (PIM2 (human)): 100%; kinase still bound, per cent of control (PLK4 (human)): 100%; kinase still bound, per cent of control (PKN2 (human)): 72%; kinase still bound, per cent of control (TGFBR1 (human)): 100%; kinase still bound, per cent of control (CSNK1D (human)): 63%; kinase still bound, per cent of control (RPS6KA2 KD1 (human)): 100%; kinase still bound, per cent of control (CLK2 (human)): 15%; kinase still bound, per cent of control (ACVR1B (human)): 96%; kinase still bound, per cent of control (ULK3 (human)): 100%; kinase still bound, per cent of control (RPS6KA2 KD2 (human)): 86%; kinase still bound, per cent of control (CSK (human)): 100%; kinase still bound, per cent of control (ERBB4 (human)): 100%; kinase still bound, per cent of control (EPHA2 (human)): 99%; kinase still bound, per cent of control (CAMKK1 (human)): 94%; kinase still bound, per cent of control (ACVR1 (human)): 86%; kinase still bound, per cent of control (MAPKAPK2 (human)): 100%; kinase still bound, per cent of control (PAK4 (human)): 100% |
| CCCS(=O)(=O)Nc1ccc(F)c(C(=O)c2c[nH]c3ncc(-c4ccc(Cl)cc4)cc23)c1F | 100% | 100% | 92% | 94% | 93% | 93% | 63% | 59% | 69% | 34% | 100% | 78% | 6.4% | 63% | 95% | 100% | 70% | 49% | 70% | 79% | kinase still bound, per cent of control (STK32B (human)): 100%; kinase still bound, per cent of control (NLK (human)): 81%; kinase still bound, per cent of control (RPS6KA4 KD1 (human)): 90%; kinase still bound, per cent of control (PIM2 (human)): 96%; kinase still bound, per cent of control (PLK4 (human)): 48%; kinase still bound, per cent of control (PKN2 (human)): 92%; kinase still bound, per cent of control (TGFBR1 (human)): 53%; kinase still bound, per cent of control (CSNK1D (human)): 97%; kinase still bound, per cent of control (RPS6KA2 KD1 (human)): 39%; kinase still bound, per cent of control (CLK2 (human)): 46%; kinase still bound, per cent of control (ACVR1B (human)): 78%; kinase still bound, per cent of control (ULK3 (human)): 46%; kinase still bound, per cent of control (RPS6KA2 KD2 (human)): 81%; kinase still bound, per cent of control (CSK (human)): 7.4%; kinase still bound, per cent of control (EPHA2 (human)): 99%; kinase still bound, per cent of control (CAMKK1 (human)): 86%; kinase still bound, per cent of control (ACVR1 (human)): 100%; kinase still bound, per cent of control (MAPKAPK2 (human)): 100%; kinase still bound, per cent of control (PAK4 (human)): 86% |
| O=C(NOC[C@H](O)CO)c1ccc(F)c(F)c1Nc1ccc(I)cc1F | 100% | 94% | 100% | 98% | 100% | 100% | 100% | 100% | 88% | 85% | 100% | 100% | 69% | 85% | 100% | 100% | 71% | 100% | 100% | 83% | kinase still bound, per cent of control (NLK (human)): 77%; kinase still bound, per cent of control (RPS6KA4 KD1 (human)): 86%; kinase still bound, per cent of control (PIM2 (human)): 75%; kinase still bound, per cent of control (PLK4 (human)): 86%; kinase still bound, per cent of control (PKN2 (human)): 100%; kinase still bound, per cent of control (TGFBR1 (human)): 100%; kinase still bound, per cent of control (CSNK1D (human)): 100%; kinase still bound, per cent of control (RPS6KA2 KD1 (human)): 100%; kinase still bound, per cent of control (CLK2 (human)): 96%; kinase still bound, per cent of control (ACVR1B (human)): 100%; kinase still bound, per cent of control (ULK3 (human)): 89%; kinase still bound, per cent of control (RPS6KA2 KD2 (human)): 92%; kinase still bound, per cent of control (CSK (human)): 100%; kinase still bound, per cent of control (ERBB4 (human)): 100%; kinase still bound, per cent of control (EPHA2 (human)): 88%; kinase still bound, per cent of control (CAMKK1 (human)): 100%; kinase still bound, per cent of control (ACVR1 (human)): 76%; kinase still bound, per cent of control (MAPKAPK2 (human)): 84%; kinase still bound, per cent of control (PAK4 (human)): 100% |
